Measurements reported in patent US11578343B2, “CAS9 proteins including ligand-dependent inteins” (President and Fellows of Harvard College, priority 2014, dated 2023).

Columns and labels:
Format in all cases: cell-based, human
HEK293-GFP stable cells = experiment: Effect of 4-HT on cellular toxicity (live cell population, TO-PRO-3 stain, flow cytometry); conditions: 12 or 60 h of treatment with 1 μM 4-HT; untransfected or transfected HEK293 cells; FIG. 5
Procedure: FIG. 5. Effect of 4-HT on cellular toxicity. Untransfected HEK293-GFP stable cells, and cells transfected with intein-Cas9(5219) and sgRNA expression plasmids, were treated with or without 4-HT (1 μM). 12 h after transfection, the media was replaced with full serum media, with or without 4-HT (1 μM). Cells were thus exposed to 4-HT for 0, 12, or 60 h. The live cell population was determined by flow cytometry 60 h after transfection using TO-PRO-3 stain (Life Technologies). Error bars reflect the standard deviation of six technical replicates.
We assayed these Cas9:sgRNA combinations in human cells for their ability to modify the three on-target loci as well as 11 known off-target genomic sites (Table 3)^4,5,10,13. Cells were treated with or without 1 μM 4-HT during transfection, and after 12 h the media was replaced with fresh media lacking 4-HT. […] Genomic DNA was isolated 60 h post-transfection and analyzed by high-throughput DNA sequencing

genomic EGFP locus [1] = experiment: Genomic EGFP disruption in HEK293-GFP stable cells (loss of GFP by flow cytometry); conditions: for Loss of GFP expression / nuclease activity, in words: with or without 1 μM 4-HT, FIG. 3c
Procedure: HEK293-GFP stable cells were transfected with the Cas9 expression plasmid, a gRNA (targeting Emerald GFP; Guilinger et al., Nature Biotechnology (2014)), and iRFP670 (transfection control), using Lipofectamine 2000. Twelve hours after transfection, media, either containing 4-HT (1 μM) or without 4-HT, was added.
Five days after transfection, cells were trypsinized and analyzed on a flow cytometer. Cells lacking GFP indicated genome modification. Cas9 variants that induced minimal genome modification in the absence of 4-HT but induce significant genome modification in the presence of 4-HT were deemed small-molecule-regulated variants in this Example.
Additionally, a time course was performed in which incubation with 4-HT was limited to 2, 4, 8, 12 or 24 hours, after which point the media was replaced.
We genetically inserted the 4-HT-dependent intein at each of fifteen positions in Cas9 (Cys80, Ala127, Thr146, Ser219, Thr333, Thr519, Cys574, Thr622, Ser701, Ala728, Thr995, Ser1006, Ser1154, Ser1159, and Ser1274), chosen to distribute the location of the intein across the structural domains of Cas9^23 (FIG. 3b and Example 1). Because intein splicing leaves behind a single Cys residue, the intein was inserted in place of one Cas9 amino acid in each of the 15 candidate constructs. In addition to replacing natural Cys amino acids, we also favored replacing Ala, Ser, or Thr residues to minimize the likelihood that the resulting Cys point mutation resulting from protein splicing would disrupt Cas9 activity. The 15 intein-Cas9 candidates were expressed in HEK293-GFP cells together with a sgRNA that targets the genomic EGFP locus in these cells. Twelve hours post-transfection, cells were treated with or without 1 μM 4-HT. Five days post-transfection, cells were analyzed on a flow cytometer for loss of GFP expression from Cas9-mediated EGFP cleavage and subsequent non-homologous end joining.
Modification of genomic GFP. HEK293-GFP stable cells (GenTarget), which constitutively express Emerald GFP, served as the reporter cell line. Cells were maintained in “full serum media”: Dulbecco's Modified Eagle's Media plus GlutaMax (Life Technologies) with 10% (vol/vol) FBS and penicillin/streptomycin (1×, Amresco). 5×10^4 cells were plated on 48-well collagen-coated Biocoat plates (Becton Dickinson). 16-18 h after plating, cells were transfected with Lipofectamine 2000 (Life Technologies) according to the manufacturer's protocol. Briefly, 1.5 μL of Lipofectamine 2000 was used to transfect 650 ng of total plasmid: 500 ng Cas9 expression plasmid, 125 ng sgRNA expression plasmid, and 25 ng near-infrared iRFP670 expressing plasmid (Addgene plasmid 45457)^26. 12 h after transfection, the media was replaced with full serum media, with or without 4-HT (1 μM, Sigma-Aldrich T176). The media was replaced again 3-4 days after transfection. Five days after transfection, cells were trypsinized and resuspended in full serum media and analyzed on a C6 flow cytometer (Accuri) with a 488-nm laser excitation and 520-nm filter with a 20-nm band pass. Transfections and flow cytometry measurements were performed in triplicate.

genomic EGFP locus [2] = experiment: as above; conditions: FIG. 12
[3] = +4-HT 2 hrs, then media replaced, Table 2
[4] = +4-HT 4 hrs, then media replaced, Table 2
[5] = +4-HT 8 hrs, then media replaced, Table 2
[6] = +4-HT 12 hrs, then media replaced, Table 2
[7] = +4-HT 24 hrs, then media replaced, Table 2
[8] = +4-HT (1 μM, added 12 h after transfection), five days after transfection, Table 1
[9] = −4-HT, five days after transfection, Table 1

| Substance | Cellular toxicity (HEK293-GFP stable cells) | Cells without GFP (%) (genomic EGFP locus [1]; [3]) | Cells without GFP (%) (genomic EGFP locus [1]; [4]) | Cells without GFP (%) (genomic EGFP locus [1]; [5]) | Cells without GFP (%) (genomic EGFP locus [1]; [6]) | Cells without GFP (%) (genomic EGFP locus [1]; [7]) | Cells without GFP (%) (genomic EGFP locus [1]; [8]) | Loss of GFP expression / nuclease activity, in words (genomic EGFP locus [1]) | Cells without GFP (%) (genomic EGFP locus [1]; [9]) | Cells without GFP (%) (genomic EGFP locus [1]; −4-HT, time course, Table 2) | Ability of β-estradiol to trigger Cas9 activity (genomic EGFP disruption) (genomic EGFP locus [2]) |
| --- | --- | --- | --- | --- | --- | --- | --- | --- | --- | --- | --- |
| 4-hydroxytamoxifen [4-HT] | no cellular toxicity |  |  |  |  |  |  |  |  |  |  |
| intein(Ala127)-Cas9: Cas9 with 37R3-2 intein replacing Ala127 (SEQ ID NO: 28) |  | 18.95% | 18.57% | 18.64% | 18.35% | 16.83% | 19.73% | 4-HT-dependent loss of GFP expression | 7.97% | 5.03% |  |
| intein(Ala728)-Cas9: Cas9 with 37R3-2 intein replacing Ala728 (SEQ ID NO: 36) |  |  |  |  |  |  | 41.89% | high DNA modification rates both in the presence and absence of 4-HT | 20.82% |  |  |
| intein(Cys80)-Cas9: Cas9 with 37R3-2 intein replacing Cys80 (SEQ ID NO: 27) |  |  |  |  |  |  | 4.96% | lack of nuclease activity | 7.08% |  |  |
| intein(Ser701)-Cas9: Cas9 with 37R3-2 intein replacing Ser701 (SEQ ID NO: 35) |  |  |  |  |  |  | 9.56% | lack of nuclease activity | 6.54% |  |  |
| intein(Ser1006)-Cas9: Cas9 with 37R3-2 intein replacing Ser1006 (SEQ ID NO: 38) |  |  |  |  |  |  | 12.61% | 4-HT-dependent loss of GFP expression | 6.80% |  |  |
| intein(Ser1154)-Cas9: Cas9 with 37R3-2 intein replacing Ser1154 (SEQ ID NO: 39) |  |  |  |  |  |  | 41.94% | high DNA modification rates both in the presence and absence of 4-HT | 21.14% |  |  |
| intein(Ser1159)-Cas9: Cas9 with 37R3-2 intein replacing Ser1159 (SEQ ID NO: 40) |  |  |  |  |  |  | 13.21% | 4-HT-dependent loss of GFP expression | 5.65% |  |  |
| intein(Ser1274)-Cas9: Cas9 with 37R3-2 intein replacing Ser1274 (SEQ ID NO: 41) |  |  |  |  |  |  | 5.00% | lack of nuclease activity | 3.08% |  |  |
| intein(Thr146)-Cas9: Cas9 with 37R3-2 intein replacing Thr146 (SEQ ID NO: 29) |  | 16.29% | 15.07% | 13.65% | 14.44% | 19.57% | 21.60% | 4-HT-dependent loss of GFP expression | 8.77% | 4.28% |  |
| intein(Thr333)-Cas9: Cas9 with 37R3-2 intein replacing Thr333 (SEQ ID NO: 31) |  |  |  |  |  |  | 9.17% | 4-HT-dependent loss of GFP expression | 4.96% |  |  |
| intein(Thr519)-Cas9: Cas9 with 37R3-2 intein replacing Thr519 (SEQ ID NO: 32) |  | 14.55% | 13.98% | 14.74% | 13.93% | 18.04% | 25.96% | 4-HT-dependent loss of GFP expression | 9.49% | 4.29% |  |
| intein(Thr622)-Cas9: Cas9 with 37R3-2 intein replacing Thr622 (SEQ ID NO: 34) |  |  |  |  |  |  | 3.96% | lack of nuclease activity | 5.67% |  |  |
| intein(Thr995)-Cas9: Cas9 with 37R3-2 intein replacing Thr995 (SEQ ID NO: 37) |  |  |  |  |  |  | 21.39% | high DNA modification rates both in the presence and absence of 4-HT | 14.95% |  |  |
| intein-Cas9(5219-G521R): intein-Cas9(S219) with point mutation G521R in the estrogen receptor ligand-binding domain (probably SEQ ID NO: 166) |  |  |  |  |  |  |  |  |  |  | eliminates the ability of β-estradiol to trigger Cas9 activity |
